Measured values taken from patent US20050281814A1, “Combination radiation therapy and chemotherapy in conjunction with administration of growth factor receptor antibody” (priority 2000, published 2005).

Tests used:
SW948 cells = test: SW948 colon tumor xenograft study with IMC-C225, CPT-11 and RT; assay type: in vivo, athymic nude mice; settings: s.c. SW948 tumors, n=7/group, RT 3 Gy q6d
MiaPaCa-2 cells [1] = test: In vitro cell proliferation, MiaPaCa-2; assay type: cell-based, human
Excerpt: (§1) Various combinations of treatment modality were studied in vitro.

MiaPaCa-2 cells [2] = test: Apoptotic cell death in vitro (annexin V-FITC), MiaPaCa-2; assay type: cell-based, human; settings: MiaPaCa-2, p-value<0.05; not enhanced by any other treatment
Excerpt: Early stages of apoptosis were identified using an annexin V-FITC apoptosis detection kit (BioVision Research Products, Palo Alto, Calif.). In studies of radiation cell survival assays, survival data was fitted to the linear quadratic (LQ) and single hit multi-target (SHMT) radiobiological models using Fit v. 2.4 software kindly provided by Dr. N. Albright, University of California at San Francisco.
as §1

[3] = test system: Mia-PaCa-2 human pancreatic cancer cells; test: MiaPaCa-2 xenograft tumor therapy study with IMC-C225, gemcitabine and radiation; assay type: in vivo, athymic nude mice; settings: s.c. Mia-PaCa-2 tumors, n=8/group, RT 3 Gy q6d
Method: Athymic nude mice were implanted subcutaneously with 2×10^7 Mia-PaCa-2 cells mixed with Matrigel.
MiaPaCa-2 cells were mixed with Matrigel (1:1) and 2×10^7 cells injected s.c. into athymic nude mice on day 0. […] Four groups of mice received gemcitabine (120 mg/kg) i.v. on days 23, 29, 35, 41, 47, and 54. In four groups of mice, tumors were exposed to six fractions of 3 Gy ^60Co radiation on days 24, 30, 36, 42, 48, and 55. The results are presented as the change in tumor size relative to baseline size on day 22. The MiaPaCa-2 experiment was terminated after 333 days.
In the animal model tumor therapy studies, multiple endpoints were examined and appropriate statistical tests were conducted to address differences between treatment groups with respect to each endpoint. The endpoints included, the size of the tumor, which was computed for each tumor at each time period, percent of original tumor size, computed for each tumor at each time point after baseline, regression, time to regression, and time that the tumor size reached twice the original tumor size (time to double). Inferences are made on the true median rather than the mean response, i.e. median tumor size or median time to double in size.

BxPC-3 cells = test: In vitro cell proliferation, BxPC-3; assay type: cell-based, human

For `CCc1c2c(nc3ccc(OC(=O)N4CCC(N5CCCCC5)CC4)cc13)-c1cc3c(c(=O)n1C2)COC(=O)[C@]3(O)CC` [CPT-11, irinotecan], the “mean tumor size doubling time” value (SW948 cells; IMC-C225 1 mg q3d×12, CPT-11 33 mg/kg q4d) was 57 days and the complete tumor regressions (SW948 cells; IMC-C225 1 mg q3d×12 i.p., CPT-11 33 mg/kg i.v. q4d, regressions/animals) was 0/7.

In the case of `Nc1ccn([C@@H]2O[C@H](CO)[C@@H](O)C2(F)F)c(=O)n1` [gemcitabine], the “cell proliferation, combination of radiation (3 Gy) and gemcitabine” value (MiaPaCa-2 cells [1]; MiaPaCa-2) is reported as “decrease in cell proliferation”, the “inhibition of cell growth” value (MiaPaCa-2 cells [1]; MiaPaCa-2, 24 h exposure to the IC50 dose of gemcitabine) is reported as “approximately 45%” and the apoptotic cell death (MiaPaCa-2 cells [2]) is reported as “small but significant increase”. For the same molecule, the “mean tumor size doubling time” value ([3]; IMC-C225 1 mg q3d×12, GEM 120 mg/kg q6d) was 22 days, the complete tumor regressions ([3]; IMC-C225 1 mg q3d×12 i.p., GEM 120 mg/kg q6d, regressions/animals) was 0/8 and the “cell proliferation, combination of radiation (3 Gy) and gemcitabine” value (BxPC-3 cells; BxPC-3) was “decrease in cell proliferation”. The “inhibition of cell growth” value (BxPC-3 cells; BxPC-3, 24 h exposure to the IC50 dose of gemcitabine) was “approximately 55%”.
